Measurements from patent publication US7402548B2, “Benzoxazole compounds, process for producing the same and herbicides” (Kyoyu Agri Co., Ltd., priority 2000, dated 2008).

Assays:
cotton [1] = assay: Foliar spread test for upland field; type: in vivo; set-up: key: 0 = normal development, 5 = all killed (6 ranks vs. untreated); conditions: foliar spray, 500 ppm, 3 weeks, glass house 25° C.
Method in brief: (§1)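 Scores on a 0–5 scale (0 normal development, 5 all killed), relative to untreated controls, were taken 3 weeks post-treatment in a 25 °C glass house. Treatment was a uniform foliar spray at 500 ppm (0.5% surfactant) onto roughly 2-week-old soil-grown plants.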

sugar beat = assay: Foliar spread test for upland field; type: in vivo; set-up: key: 0 = normal development, 5 = all killed (6 ranks vs. untreated); conditions: foliar spray, 500 ppm, 3 weeks, glass house 25° C.
Method in brief: as §1

solgum = assay: Foliar spread test for upland field; type: in vivo; set-up: key: 0 = normal development, 5 = all killed (6 ranks vs. untreated); conditions: foliar spray, 500 ppm, 3 weeks, glass house 25° C.
Method in brief: as §1

morning glory = assay: Foliar spread test for upland field; type: in vivo, Ipomoea spps.; set-up: key: 0 = normal development, 5 = all killed (6 ranks vs. untreated); conditions: foliar spray, 500 ppm, 3 weeks, glass house 25° C.
Method in brief: as §1

young rice plant = assay: Herbicidal test for paddy field; type: in vivo; conditions: 500 g/ha, dropwise addition to paddy water at 1.5 leaf stage of barnyard grass; glass house 25° C., 3 weeks; rank 0-5 vs non-treated district; note: key: 0: normal development; 1: Less damaged; 2: Slightly damaged; 3: Moderately damaged; 4: Severely damaged; 5: All killed
Method: Then, the pots were filled with water to a depth of 3 cm. […] These plants were controlled in a glass house at an average temperature of 25° C. for 3 weeks, and then herbicidal effects thereof were investigated. The herbicidal effects are evaluated according to the following 6 ranks as compared with non-treated district. […] Incidentally, “-” in the column means not investigated.

Xanthium pensylvanicum = assay: Foliar spread test for upland field; type: in vivo; set-up: key: 0 = normal development, 5 = all killed; conditions: foliar spray, 500 ppm, 3 weeks, glass house 25° C.
Method in brief: as §1

Cassia obtusifolia = assay: Foliar spread test for upland field; type: in vivo; set-up: key: 0 = normal development, 5 = all killed; conditions: foliar spray, 500 ppm, 3 weeks, glass house 25° C.
Method in brief: as §1

barnyard grass = assay: Soil treatment test for upland field; type: in vivo, Eschinochloa crusgalli; set-up: key: 0 = normal development, 5 = all killed; conditions: 500 g/ha, 3 weeks, glass house 25° C.
Method in brief: (§2)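 Pre-emergence: seeds sown in alluvial Ube soil, wettable powder diluted in water with 0.05% surfactant sprayed on soil surface at 500 g/ha. Plants held in glasshouse at 25° C average for 3 weeks. Damage scored 0 (normal) to 5 (all killed) versus untreated.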

bulrush = assay: Herbicidal test for paddy field; type: in vivo, Scrips juncoides; conditions: 500 g/ha, dropwise addition to paddy water at 1.5 leaf stage of barnyard grass; glass house 25° C., 3 weeks; rank 0-5 vs non-treated district; note: key: 0: normal development; 1: Less damaged; 2: Slightly damaged; 3: Moderately damaged; 4: Severely damaged; 5: All killed
Method in brief: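 Wettable-powder formulations in water with 0.05% surfactant were dripped onto flooded (3 cm) Ube alluvial-soil pots at 500 g/ha, applied at barnyard grass 1.5-leaf stage. Plants were kept in a glasshouse at 25° C. for 3 weeks. Damage was scored 0 (normal) to 5 (all killed) versus untreated plants.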

soybean = assay: Soil treatment test for upland field; type: in vivo; set-up: key: 0 = normal development, 5 = all killed; conditions: 500 g/ha, 3 weeks, glass house 25° C.
Method in brief: as §2

Large crabgrass = assay: Soil treatment test for upland field; type: in vivo, Digitaria adscendens; set-up: key: 0 = normal development, 5 = all killed; conditions: 500 g/ha, 3 weeks, glass house 25° C.
Method in brief: as §2

green foxtail = assay: Foliar spread test for upland field; type: in vivo, Setaria viridis; set-up: key: 0 = normal development, 5 = all killed (6 ranks vs. untreated); conditions: foliar spray, 500 ppm, 3 weeks, glass house 25° C.
Method in brief: as §1

cotton [2] = assay: Soil treatment test for upland field; type: in vivo; conditions: 500 g/ha, 3 weeks, glass house 25° C. Note: key: 0: normal development; 1: Less damaged; 2: Slightly damaged; 3: Moderately damaged; 4: Severely damaged; 5: All killed.
Method in brief: as §2

Row | SMILES | Effects Sotton (cotton [1]) | Effects Sugar beat (sugar beat) | Effects Solgum (solgum) | Effects Morning glory (morning glory) | Effects Young rice plant (young rice plant) | Effects Common Cocklebur (Xanthium pensylvanicum) | Effects Sicklepod (Cassia obtusifolia) | Effects Barnyardgrass (barnyard grass) | Effects Bulrush (bulrush) | Effects Soybean (soybean) | Effects Large crabgrass (Large crabgrass) | Effects Green foxtail (green foxtail) | Effects Sotton (cotton [2])
1 | FC(F)(F)c1cccc(Oc2cccc(-c3nc4cc(Cl)ccc4o3)n2)c1 [I-a-3, 6-(5-chlorobenzoxazol-2-yl)-2-(3-trifluoromethylphenoxy)pyridine] | 4 | 4 | 1 | 5 | 2 | 4 | 4 | 4 | 0 | 3 | 5 | 3 | –
2 | Fc1ccc2nc(-c3cccc(Oc4cccc(C(F)(F)F)c4)n3)oc2c1 [I-a-6, 6-(6-fluorobenzoxazol-2-yl)-2-(3-trifluoromethylphenoxy)pyridine] | 3 | 5 | 3 | 5 | 3 | 5 | 5 | 5 | – | – | 5 | 5 | 1
3 | Fc1ccc2nc(-c3cccc(Oc4ccc(F)c(C(F)(F)F)c4)n3)oc2c1 [I-a-7] | 3 | 5 | 2 | 3 | – | 4 | 3 | 4 | 0 | 2 | 5 | 3 | 0
